± gives the expanded uncertainty stated by the source.
What was measured:
[1] = refractive index (Na D-line) (dimensionless); settings: 293.15 K; 101.33 kPa; Liquid; Standard Abbe refractometry
[2] = activity coefficient (dimensionless); of the first substance listed, at infinite dilution; xn = mol fraction of the nth substance listed; settings: 101.33 kPa, Liquid, Chromatography, x1 = 0
[3] = 288.15 K; 101.33 kPa; Liquid; Vibrating tube method

Compound	refractive index [1]	activity coefficient ([2]; 303.15 K)	activity coefficient ([2]; 313.15 K)	activity coefficient ([2]; 323.15 K)	activity coefficient ([2]; 304.15 K)	mass density [3]
OCCO [1,2-ethanediol]	1.4319 ± 0.0004					
C=CCCCCC [1-heptene] + OCCO		570 ± 26	503 ± 23	452 ± 20		
C=CCCCCC [1-heptene] + OCCOCCO			77.8 ± 3.5	73.4 ± 3.3	84 ± 3.8	
C=CCCCCCCC [1-nonene] + OCCO		1610 ± 73	1300 ± 59	1170 ± 53		
C=CCCCCCCC [1-nonene] + OCCOCCO			174 ± 8	159 ± 7	188 ± 8	
C1CCCCC1 [cyclohexane] + OCCO		270 ± 12	238 ± 11	212 ± 10		
C1CCCCC1 [cyclohexane] + OCCOCCO			46.7 ± 2.1	43.5 ± 1.9	50.6 ± 2.3	
C1CCCC1 [cyclopentane] + OCCO		163 ± 7	149 ± 7	133 ± 6		
C1CCCC1 [cyclopentane] + OCCOCCO			31.6 ± 1.4	30.1 ± 1.3	33.8 ± 1.5	
OCCOCCO [diethylene glycol]	1.4472 ± 0.0004					1120.3 ± 2 kg/m3
CCCCCCC [heptane] + OCCO		1200 ± 54	1030 ± 47	860 ± 39		
CCCCCCC [heptane] + OCCOCCO			151 ± 7	140 ± 6	174 ± 8	
C=CCCCC [hex-1-ene] + OCCO		330 ± 15	298 ± 13	272 ± 12		
C=CCCCC [hex-1-ene] + OCCOCCO			52.4 ± 2.3	50.2 ± 2.2	56.3 ± 2.5	
CCCCCC [hexane] + OCCO		716 ± 32	620 ± 28	543 ± 25		
CCCCCC [hexane] + OCCOCCO			102 ± 5	94.2 ± 4.2	112 ± 5	
CC1CCCCC1 [methylcyclohexane] + OCCO		473 ± 21	407 ± 18	370 ± 17		
CC1CCCCC1 [methylcyclohexane] + OCCOCCO			71.1 ± 4.9	66 ± 4.5	77.2 ± 5.3	
CCCCCCCCC [nonane] + OCCO		2960 ± 140	2320 ± 110	1970 ± 90		
CCCCCCCCC [nonane] + OCCOCCO			329 ± 15	295 ± 13	371 ± 17	
C=CCCCCCC [oct-1-ene] + OCCO		962 ± 44	819 ± 37	736 ± 33		
C=CCCCCCC [oct-1-ene] + OCCOCCO			116 ± 5	108 ± 5	126 ± 6	
CCCCCCCC [octane] + OCCO		1960 ± 89	1600 ± 73	1340 ± 61		
CCCCCCCC [octane] + OCCOCCO			223 ± 10	203 ± 9	249 ± 11	
CCCCC [pentane] + OCCO		436 ± 20	389 ± 18	338 ± 15		
CCCCC [pentane] + OCCOCCO			70.5 ± 3.1	66.4 ± 3	74.1 ± 3.3	

From the NIST ThermoML archive (doi:10.1016/j.jct.2016.10.013)
